Laboratory results: patent US9181305B2, “Exendin-4 peptide analogues” (SANOFI, priority 2012, dated 2015)
*1 amine or outer side, *2 acyl side, *3 side chain or, on linkers, in order; H or OH if unused. Where a SMILES comes first, the peptide text is derived from it. Side-chain parts run from the residue outwards. [ ]: non-standard residue; d: D form. The star is where a group is joined. γGlu = O=C(O)[C@H](CCC(=O)[*:2])N[*:1]; Palmitoyl = CCCCCCCCCCCCCCCC(=O)*; Aib = CC(C)(N)C(=O)O

The molecules below were run against T1, human GLP-1 receptor (hGLP-1 R) (Homo sapiens, UniProt P43220) (assay: cAMP response (HTRF) of HEK-293 cells stably expressing human GLP-1 receptor). Conditions: HEK-293 cells expressing human GLP-1 receptor, cAMP formation.
T1 construct: expressed in transfected cells; host or cells: HEK-293
T1 sequence (P43220 24-463): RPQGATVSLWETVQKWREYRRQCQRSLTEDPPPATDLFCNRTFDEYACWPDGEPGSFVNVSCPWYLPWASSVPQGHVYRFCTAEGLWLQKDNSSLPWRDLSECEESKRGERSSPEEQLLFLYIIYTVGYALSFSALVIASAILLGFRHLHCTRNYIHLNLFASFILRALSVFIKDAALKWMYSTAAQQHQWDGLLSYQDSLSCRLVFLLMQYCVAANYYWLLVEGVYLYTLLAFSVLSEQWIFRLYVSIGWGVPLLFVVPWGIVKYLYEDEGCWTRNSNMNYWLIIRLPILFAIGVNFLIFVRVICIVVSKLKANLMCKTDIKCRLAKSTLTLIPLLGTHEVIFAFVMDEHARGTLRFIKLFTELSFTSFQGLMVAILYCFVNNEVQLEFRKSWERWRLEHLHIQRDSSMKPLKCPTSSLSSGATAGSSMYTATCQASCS
Format: cell-based
Description: cAMP content of cells was determined using a kit from Cisbio Corp. (cat. no. 62AM4PEC) based on HTRF (Homogenous Time Resolved Fluorescence). For preparation, cells were split into T175 culture flasks and grown overnight to near confluency in medium (DMEM/10% FBS). Medium was then removed and cells washed with PBS lacking calcium and magnesium, followed by proteinase treatment with accutase (Sigma-Aldrich cat. no. A6964). Detached cells were washed and resuspended in assay buffer (1×HBSS; 20 mM HEPES, 0.1% BSA, 2 mM IBMX) and cellular density determined. […] For measurement, 25 μl of test compound in assay buffer was added to the wells, followed by incubation for 30 minutes at room temperature.
For `CCCCCCCCCCCCCCCC(=O)NCCCC[C@H](NC(=O)[C@H](CO)NC(=O)[C@@H]1CCCN1C(=O)[C@@H]1CCCN1C(=O)[C@@H]1CCCN1C(=O)[C@H](C)NC(=O)CNC(=O)[C@H](CO)NC(=O)[C@H](CO)NC(=O)[C@@H]1CCCN1C(=O)CNC(=O)CNC(=O)[C@H](CC(N)=O)NC(=O)[C@H](CCCCN)NC(=O)[C@H](CC(C)C)NC(=O)[C@H](Cc1c[nH]c2ccccc12)NC(=O)[C@H](CCC(=O)O)NC(=O)[C@@H](NC(=O)[C@H](Cc1ccccc1)NC(=O)[C@H](CC(=O)O)NC(=O)[C@H](CCC(N)=O)NC(=O)[C@H](C)NC(=O)[C@H](CCCNC(=N)N)NC(=O)[C@H](CCCNC(=N)N)NC(=O)[C@H](CO)NC(=O)[C@H](CC(=O)O)NC(=O)[C@H](CCSC)NC(=O)[C@H](CCC(N)=O)NC(=O)[C@H](CCCCN)NC(=O)[C@H](CO)NC(=O)[C@H](CC(C)C)NC(=O)[C@H](CC(=O)O)NC(=O)[C@H](CO)NC(=O)[C@@H](NC(=O)[C@H](Cc1ccccc1)NC(=O)[C@@H](NC(=O)CNC(=O)[C@H](CCC(N)=O)NC(=O)[C@@H](CO)NC(=O)[C@@H](N)Cc1c[nH]cn1)[C@@H](C)O)[C@@H](C)O)[C@@H](C)CC)C(N)=O` [(26)], the EC50 was 9.7 pM. Molecule `CCCCCCCCCCCCCCCC(=O)N[C@@H](CCC(=O)NCCCC[C@H](NC(=O)[C@H](CO)NC(=O)[C@@H]1CCCN1C(=O)[C@@H]1CCCN1C(=O)[C@@H]1CCCN1C(=O)[C@H](C)NC(=O)CNC(=O)[C@H](CO)NC(=O)[C@H](CO)NC(=O)[C@@H]1CCCN1C(=O)CNC(=O)CNC(=O)[C@H](CC(N)=O)NC(=O)[C@H](CCCCN)NC(=O)[C@H](CC(C)C)NC(=O)[C@H](Cc1c[nH]c2ccccc12)NC(=O)[C@H](CCC(=O)O)NC(=O)[C@@H](NC(=O)[C@H](Cc1ccccc1)NC(=O)[C@H](CC(=O)O)NC(=O)[C@H](CCC(N)=O)NC(=O)[C@H](C)NC(=O)[C@H](CCCNC(=N)N)NC(=O)[C@H](CCCNC(=N)N)NC(=O)[C@H](CCCCN)NC(=O)[C@H](CC(=O)O)NC(=O)[C@H](CCSC)NC(=O)[C@H](CCC(N)=O)NC(=O)[C@H](CCCCN)NC(=O)[C@H](CO)NC(=O)[C@H](CC(C)C)NC(=O)[C@H](CC(=O)O)NC(=O)[C@H](CO)NC(=O)[C@@H](NC(=O)[C@H](Cc1ccccc1)NC(=O)[C@@H](NC(=O)CNC(=O)[C@H](CCC(N)=O)NC(=O)[C@@H](CO)NC(=O)[C@@H](N)Cc1c[nH]cn1)[C@@H](C)O)[C@@H](C)O)[C@@H](C)CC)C(N)=O)C(=O)O` [(69)] (H-H[dS]QGTFTSDLSKQMDKRRAQDFIEWLKNGGPSSGAPPPSK([γGlu-Palmitoyl])-NH2) has an EC50 of 7.6 pM. Work on `CC[C@H](C)[C@H](NC(=O)[C@H](Cc1ccccc1)NC(=O)[C@H](CC(=O)O)NC(=O)[C@H](CCCCN)NC(=O)[C@H](C)NC(=O)[C@H](CCCNC(=N)N)NC(=O)[C@H](CCCNC(=N)N)NC(=O)[C@H](CCC(=O)O)NC(=O)[C@H](CCC(=O)O)NC(=O)[C@H](CCSC)NC(=O)[C@H](CCC(N)=O)NC(=O)[C@H](CCCCN)NC(=O)[C@H](CO)NC(=O)[C@H](CC(C)C)NC(=O)[C@H](CC(=O)O)NC(=O)[C@H](CO)NC(=O)[C@@H](NC(=O)[C@H](Cc1ccccc1)NC(=O)[C@@H](NC(=O)CNC(=O)[C@H](CCC(N)=O)NC(=O)[C@H](CO)NC(=O)[C@@H](N)Cc1c[nH]cn1)[C@@H](C)O)[C@@H](C)O)C(=O)N[C@@H](CCC(=O)O)C(=O)N[C@@H](Cc1c[nH]c2ccccc12)C(=O)N[C@@H](CC(C)C)C(=O)N[C@@H](CCCCN)C(=O)N[C@@H](CC(N)=O)C(=O)NCC(=O)NCC(=O)N1CCC[C@H]1C(=O)N[C@@H](CO)C(=O)N[C@@H](CO)C(=O)NCC(=O)N[C@@H](C)C(=O)N1CCC[C@H]1C(=O)N1CCC[C@H]1C(=O)N1CCC[C@H]1C(=O)N[C@@H](CO)C(N)=O` [(16)] (H-HSQGTFTSDLSKQMEERRAKDFIEWLKNGGPSSGAPPPS-NH2) yielded an EC50 of 7.6 pM. Molecule `CCCCCCCCCCCCCCCC(=O)N[C@@H](CCC(=O)NCCCC[C@H](NC(=O)[C@H](CO)NC(=O)[C@@H]1CCCN1C(=O)[C@@H]1CCCN1C(=O)[C@@H]1CCCN1C(=O)[C@H](C)NC(=O)CNC(=O)[C@H](CO)NC(=O)[C@H](CO)NC(=O)[C@@H]1CCCN1C(=O)CNC(=O)CNC(=O)C(C)(C)NC(=O)[C@H](CCCCN)NC(=O)[C@H](CC(C)C)NC(=O)[C@H](Cc1c[nH]c2ccccc12)NC(=O)[C@H](CCC(=O)O)NC(=O)[C@@H](NC(=O)[C@H](Cc1ccccc1)NC(=O)[C@H](CC(=O)O)NC(=O)[C@H](CCC(N)=O)NC(=O)[C@H](C)NC(=O)[C@H](CCCNC(=N)N)NC(=O)[C@H](CCCNC(=N)N)NC(=O)[C@H](CO)NC(=O)[C@H](CC(=O)O)NC(=O)[C@H](CCSC)NC(=O)[C@H](CCC(N)=O)NC(=O)[C@H](CCCCN)NC(=O)[C@H](CO)NC(=O)[C@H](CC(C)C)NC(=O)[C@H](CC(=O)O)NC(=O)[C@H](CO)NC(=O)[C@@H](NC(=O)[C@H](Cc1ccccc1)NC(=O)[C@@H](NC(=O)CNC(=O)[C@H](CCC(N)=O)NC(=O)[C@@H](CO)NC(=O)[C@@H](N)Cc1c[nH]cn1)[C@@H](C)O)[C@@H](C)O)[C@@H](C)CC)C(N)=O)C(=O)O` [(72)] (H-H[dS]QGTFTSDLSKQMDSRRAQDFIEWLK[Aib]GGPSSGAPPPSK([γGlu-Palmitoyl])-NH2) has an EC50 of 5.2 pM. In the case of `CCCCCCCCCCCCCCCC(=O)N[C@@H](CCC(=O)NCCCC[C@H](NC(=O)[C@@H]1CCCN1C(=O)[C@@H]1CCCN1C(=O)[C@@H]1CCCN1C(=O)[C@H](C)NC(=O)CNC(=O)[C@H](CO)NC(=O)[C@H](CO)NC(=O)[C@@H]1CCCN1C(=O)CNC(=O)CNC(=O)[C@H](CC(N)=O)NC(=O)[C@H](CCCCN)NC(=O)[C@H](CC(C)C)NC(=O)[C@H](Cc1c[nH]c2ccccc12)NC(=O)[C@H](CCC(=O)O)NC(=O)[C@@H](NC(=O)[C@H](Cc1ccccc1)NC(=O)[C@H](CC(=O)O)NC(=O)[C@H](CCC(N)=O)NC(=O)[C@H](C)NC(=O)[C@H](CCCNC(=N)N)NC(=O)[C@H](CCCNC(=N)N)NC(=O)[C@H](CO)NC(=O)[C@H](CC(=O)O)NC(=O)[C@H](CCSC)NC(=O)[C@H](CCC(N)=O)NC(=O)[C@H](CCCCN)NC(=O)[C@H](CO)NC(=O)[C@H](CC(C)C)NC(=O)[C@H](CC(=O)O)NC(=O)[C@H](CO)NC(=O)[C@@H](NC(=O)[C@H](Cc1ccccc1)NC(=O)[C@@H](NC(=O)CNC(=O)[C@H](CCC(N)=O)NC(=O)C(C)(C)NC(=O)[C@@H](N)Cc1c[nH]cn1)[C@@H](C)O)[C@@H](C)O)[C@@H](C)CC)C(N)=O)C(=O)O` [(52)] (H-H[Aib]QGTFTSDLSKQMDSRRAQDFIEWLKNGGPSSGAPPPK([γGlu-Palmitoyl])-NH2), the EC50 is reported as 4.1 pM. `CCCCCCCCCCCCCCCC(=O)N[C@@H](CCC(=O)NCCCC[C@H](NC(=O)[C@H](CO)NC(=O)[C@@H]1CCCN1C(=O)[C@@H]1CCCN1C(=O)[C@@H]1CCCN1C(=O)[C@H](C)NC(=O)CNC(=O)[C@H](CO)NC(=O)[C@H](CO)NC(=O)[C@@H]1CCCN1C(=O)CNC(=O)CNC(=O)[C@H](C)NC(=O)[C@H](CCCCN)NC(=O)[C@H](CC(C)C)NC(=O)[C@H](Cc1c[nH]c2ccccc12)NC(=O)[C@H](CCC(=O)O)NC(=O)[C@@H](NC(=O)[C@H](Cc1ccccc1)NC(=O)[C@H](CC(=O)O)NC(=O)[C@H](CCCCN)NC(=O)[C@H](C)NC(=O)[C@H](C)NC(=O)[C@H](CCC(=O)O)NC(=O)[C@H](CCC(=O)O)NC(=O)[C@H](CCC(=O)O)NC(=O)[C@H](CCSC)NC(=O)[C@H](CCC(N)=O)NC(=O)[C@H](CCCCN)NC(=O)[C@H](CO)NC(=O)[C@H](CC(C)C)NC(=O)[C@H](CC(=O)O)NC(=O)[C@H](CO)NC(=O)[C@@H](NC(=O)[C@H](Cc1ccccc1)NC(=O)[C@@H](NC(=O)CNC(=O)[C@H](CCC(N)=O)NC(=O)[C@@H](CO)NC(=O)[C@@H](N)Cc1c[nH]cn1)[C@@H](C)O)[C@@H](C)O)[C@@H](C)CC)C(N)=O)C(=O)O` [(110)] (H-H[dS]QGTFTSDLSKQMEEEAAKDFIEWLKAGGPSSGAPPPSK([γGlu-Palmitoyl])-NH2) showed an EC50 of 2.9 pM.
